# Assay results as given in patent US20090048301A1 (IMCLONE SYSTEMS INCORPORATED, priority 2003, published 2009).
# “And” between values parts separate entries of the source, which are not always exact repeats. Equal entries are not always repeated. Where two headings read alike, the source gives them in different places.
# Tests used:
# bovine tubulin = experiment: In vitro tubulin polymerization assay (turbidity at 340 nm); assay type: biochemical; details: 10 μM compound, 30 minute data point, vs 1% DMSO control
# In short: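 Bovine tubulin (97%, <3% MAPs) at 3 mg/ml final in G-PEM pH 7 with 1 mM GTP and 5% glycerol, added cold to compound wells at 37° C (1% DMSO final). A340 read each minute for 30 min; percent inhibition from 30-min point versus DMSO control.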
# [1] = tested on: A431, human epidermoid carcinoma cells; experiment: Cell cycle analysis (FACS), mitotic arrest in G2/M; assay type: cell-based; details: read-out: FACS Assay: concentration required to achieve inhibition in FACS assay
# Protocol: The cell cycle analysis was performed as follows. Cancer cells (A431, human epidennoid carcinoma cells) were maintained in culture in D-MEM media with 10% FBS and 1 mg/ml glutamate. Prior to experiment, cells were plated onto 6-well plates for a final density of 500,000 cells/well at the time of treatment. Cells were treated with the compounds of the invention at a concentration of about 0.01 to 1 μM final concentrations (final 0.1% DMSO) for 24 hours, then trypsinized, collected, rinsed in PBS (phosphate buffered saline), and fixed in 70% cold ethanol overnight at 4° C. The cells were then rinsed with PBS, resuspended in PBS with 0.2% Tween, RNAse was added (final 1 μg/ml), cells were incubated at 37° C. for 15 min, followed by addition of Propidium Iodide (final 50 μg/ml), and a 30 minute incubation at room temperature. DNA ploidy was analyzed using flow cytometers (Epics Excel, Beckman-Coulter, or Guava PCA-96, Guava Technologies) and mitotic arrest characterized by massive accumulation of cells in the G2/M phase of cell cycle.
# Cancer cells (A431, human epidermoid cells) were maintained in culture in D-MEM media with 10% FBS and 1 mg/ml glutamate. Prior to experiment, cells are plated onto 6-well plates for a final density of 500,000 cells/well at the time of treatment. Cells were treated with compounds at 0.01-1 μM final concentrations (final […] DMS 0) for 24 hours, then trypsinized, collected, rinsed in PBS (phosphate buffered saline), and fixed in 70% cold ethanol overnight at 4° C. Cells were then rinsed with PBS, resuspended in PBS with 0.2% Tween, RNAse was added (final 1 μg/ml), cells were incubated at 37° C. for 15 min, followed by addition of Propidium Iodide (final 50 μg/ml), and a 30 minute incubation at room temperature. DNA ploidy was analyzed using cell sorters (Epics Excel, Beckman-Coulter, or Guava PCA-96, Guava Technologies) and mitotic arrest characterized by massive accumulation of cells in the G2/M phase of cell cycle.
SMILES,Tubulin Assay: percent inhibition at 10 μM based on 30 minute data (bovine tubulin),"minimal effective concentration ([1]; Homo sapiens, A-431, 24 h) [µM]",minimal effective concentration ([1]; 24 hours) [µM]
"c1ccc(-c2nnc(Nc3ccc4c(c3)OCCO4)[nH]2)c(NCc2ccncc2)c1 [Compound 122, (2,3-Dihydro-benzo[1,4]dioxin-6-yl)-(5-{2-[(pyridin-4-ylmethyl)-amino]-phenyl}-4H-[1,2,4]triazol-3-yl)-amine]",84%,1,
"COc1cccc(Nc2nnc(-c3ccccc3NCc3ccc4[nH]ncc4c3)[nH]2)c1 [Compound 123, (5-{2-[(1H-Indazol-5-ylmethyl)-amino]-phenyl}-4H-[1,2,4]triazol-3-yl)-(3-methoxy-phenyl)-amine]",75%,1,
"FC(F)(F)c1ccc(-c2nnc(Nc3ccc4c(c3)OCO4)[nH]2)c(NCc2ccncc2)c1 [Compound 124, Benzo[1,3]dioxol-5-yl-(5-{2-[(pyridin-4-ylmethyl)-amino]-4-trifluoromethyl-phenyl}-4H-[1,2,4]triazol-3-yl)-amine]",93%,0.1,
"O=S(=O)(Nc1ccccc1-c1nnc(Nc2ccc3c(c2)OCCO3)[nH]1)c1cccc(OC(F)(F)F)c1 [Compound 127, N-{2-[5-(2,3-Dihydro-benzo[1,4]dioxin-6-ylamino)-4H-[1,2,4]triazol-3-yl]-phenyl}-3-trifluoromethoxy-benzenesulfonamide]",61%,10,
"CS(=O)(=O)c1ccc(-c2nnc(-c3ccccc3NCc3ccc4c(c3)OCO4)[nH]2)cc1 [Compound 133, Benzo[1,3]dioxol-5-ylmethyl-{2-[5-(4-methanesulfonyl-phenyl)-4H-[1,2,4]triazol-3-yl]-phenyl}-amine]",86%,1,
"COc1cccc(-c2nnc(-c3ccccc3NCc3ccc4[nH]ncc4c3)[nH]2)c1 [Compound 136, (1H-Indazol-5-ylmethyl)-{2-[5-(3-methoxy-phenyl)-4H-[1,2,4]triazol-3-yl]-phenyl}-amine]",32%,10,
"FC(F)(F)Oc1cccc(-c2nnc(-c3ccccc3NCc3ccc4c(c3)OCO4)[nH]2)c1 [Compound 141, Benzo[1,3]dioxol-5-ylmethyl-{2-[5-(3-trifluoromethoxy-phenyl)-4H-[1,2,4]triazol-3-yl]-phenyl}-amine]",88%,0.1,
"Brc1ccc(-c2nnc(-c3ccccc3NCc3ccc4[nH]ncc4c3)[nH]2)cc1 [Compound 145, {2-[5-(4-Bromo-phenyl)-4H-[1,2,4]triazol-3-yl]-phenyl}-(1H-indazol-5-ylmethyl)-amine]",58%,0.1,
"COc1cccc(-c2nnc(-c3ccccc3NCc3ccc4c(c3)OCO4)[nH]2)c1 [Compound 148, Benzo[1,3]dioxol-5-ylmethyl-{2-[5-(3-methoxy-phenyl)-4H-[1,2,4]triazol-3-yl]-phenyl}-amine]",71%,10,
"Fc1ccc(CNc2ncccc2-c2nnc(Nc3ccc4c(c3)OCO4)o2)cc1F [Compound 155, {3-[5-(Benzo[1,3]dioxol-5-ylamino)-[1,3,4]oxadiazol-2-yl]-pyridin-2-yl}-(3,4-difluoro-benzyl)-amine]",91%,1,
"COc1cccc(CNc2ncccc2-c2nnc(Nc3ccc4c(c3)OCO4)o2)c1 [Compound 156, {3-[5-(Benzo[1,3]dioxol-5-ylamino)-[1,3,4]oxadiazol-2-yl]-pyridin-2-yl}-(3-methoxy-benzyl)-amine]",64%,1,
"COc1ccc(CNc2ncccc2-c2nnc(Nc3ccc4c(c3)OCO4)o2)cc1 [Compound 157, {3-[5-(Benzo[1,3]dioxol-5-ylamino)-[1,3,4]oxadiazol-2-yl]-pyridin-2-yl}-(4-methoxy-benzyl)-amine]",92%,1,
"COc1cccc(CNc2ncccc2-c2nnc(Nc3ccc4c(c3)OCCO4)o2)c1 [Compound 159, {3-[5-(2,3-Dihydro-benzo[1,4]dioxin-6-ylamino)-[1,3,4]oxadiazol-2-yl]-pyridin-2-yl}-(3-methoxy-benzyl)-amine]",87%,0.075,
"COc1ccc(CNc2ncccc2-c2nnc(Nc3ccc4c(c3)OCCO4)o2)cc1 [Compound 160, {3-[5-(2,3-Dihydro-benzo[1,4]dioxin-6-ylamino)-[1,3,4]oxadiazol-2-yl]-pyridin-2-yl}-(4-methoxy-benzyl)-amine]",89%,0.1,
"Fc1ccc(CNc2ncccc2-c2nnc(Nc3ccc4c(c3)OCCO4)o2)cc1F [Compound 161, (3,4-Difluoro-benzyl)-{3-[5-(2,3-dihydro-benzo[1,4]dioxin-6-ylamino)-[1,3,4]oxadiazol-2-yl]-pyridin-2-yl}-amine]",82%,0.1,
"c1cncc(CNc2ncccc2-c2nnc(Nc3ccc4c(c3)OCCO4)o2)c1 [Compound 162, {3-[5-(2,3-Dihydro-benzo[1,4]dioxin-6-ylamino)-[1,3,4]oxadiazol-2-yl]-pyridin-2-yl}-pyridin-3-ylmethyl-amine]",86%,0.01,
"c1coc(CNc2ncccc2-c2nnc(Nc3ccc4c(c3)OCO4)o2)c1 [Compound 163, {3-[5-(Benzo[1,3]dioxol-5-ylamino)-[1,3,4]oxadiazol-2-yl]-pyridin-2-yl}-furan-2-ylmethyl-amine]",90%,1,
"c1coc(CNc2ncccc2-c2nnc(Nc3ccc4c(c3)OCCO4)o2)c1 [Compound 164, {3-[5-(2,3-Dihydro-benzo[1,4]dioxin-6-ylamino)-[1,3,4]oxadiazol-2-yl]-pyridin-2-yl}-furan-2-ylmethyl-amine]",73%,,0.1
"COc1ccc(CNc2ncccc2-c2nnc(Nc3ccc4c(c3)OCCO4)o2)cc1OC [Compound 165, {3-[5-(2,3-Dihydro-benzo[1,4]dioxin-6-ylamino)-[1,3,4]oxadiazol-2-yl]-pyridin-2-yl}-(3,4-dimethoxy-benzyl)-amine]",86%,0.1,
"COc1ccc(CNc2ncccc2-c2nnc(Nc3ccc(OC)c(OC)c3)o2)cc1OC [Compound 166, (3,4-Dimethoxy-benzyl)-{3-[5-(3,4-dimethoxy-phenylamino)-[1,3,4]oxadiazol-2-yl]-pyridin-2-yl}-amine]",53%,1,
"Fc1cccc(CNc2ncccc2-c2nnc(Nc3ccc4c(c3)OCCO4)o2)c1 [Compound 168, {3-[5-(2,3-Dihydro-benzo[1,4]dioxin-6-ylamino)-[1,3,4]oxadiazol-2-yl]-pyridin-2-yl}-(3-fluoro-benzyl)-amine]",95%,0.1,
"Fc1ccc(CNc2ncccc2-c2nnc(Nc3ccc4c(c3)OCCO4)o2)cc1 [Compound 169, {3-[5-(2,3-Dihydro-benzo[1,4]dioxin-6-ylamino)-[1,3,4]oxadiazol-2-yl]-pyridin-2-yl}-(4-fluoro-benzyl)-amine]",82%,0.1,
"c1cnc(N2CCOCC2)c(-c2nnc(Nc3ccc4c(c3)OCCO4)o2)c1 [Compound 170, (2,3-Dihydro-benzo[1,4]dioxin-6-yl)-[5-(2-morpholin-4-yl-pyridin-3-yl)-[1,3,4]oxadiazol-2-yl]-amine]",55%,0.1,
"Fc1ccc(CNc2ncccc2-c2nnc(Nc3ccc4c(c3)OCO4)o2)cc1 [Compound 172, {3-[5-(Benzo[1,3]dioxol-5-ylamino)-[1,3,4]oxadiazol-2-yl]-pyridin-2-yl}-(4-fluoro-benzyl)-amine]",95% and 87%,0.1,
